{
  "source": "patent US8580814B2",
  "about": "“Methods of using (+)-1,4-dihydro-7-[(3S,4S)-3-methoxy-4-(methylamino)-1-pyrrolidinyl]-4- oxo-1-(2-thiazolyl)-1,8-naphthyridine-3-carboxylic acid for treatment of cancer” (priority 2006, dated 2013)",
  "key": {"[1]": {"system": "HCT-116 cells treated with 2 mM caffeine", "assay": "MTT assay, sensitization (caffeine)", "assay_type": "cell-based", "conditions": "2 mM caffeine pre-treated for 16 hours, compound 72 hours", "method": "(§1) Cells were then incubated with 5% MTT for 1-2 hours and lysed. MTT was colorimetrically read at 570 nm and EC50's were determined using linear regression analysis.\n(§2) Sensitization was carried out with various chemical treatments."}, "[2]": {"system": "HCT-116 cells with 6 fold lower ATR levels", "assay": "MTT assay, sensitization (ATRFLOX)", "assay_type": "cell-based", "conditions": "compound 72 hours", "method": "as §1, §2"}, "[3]": {"system": "MO59J (DNAPKcs(−/−)) vs MO59K (DNAPKCs(+/+))", "assay": "MTT assay, sensitization (DNAPKcs(−/−))", "assay_type": "cell-based", "conditions": "MO59J (DNAPKcs(−/−)) vs MO59K (DNAPKCs(+/+)); compound 72 hours", "method": "as §1, §2"}, "[4]": {"system": "HL-60 (promyelocytic leukemia)", "assay": "MTT cell viability assay, leukemia cells", "assay_type": "cell-based", "conditions": "Homo sapiens; HL-60, MTT after 72 hours", "method": "(§3) The following cell lines were used in this assay: HL-60 (promyelocytic leukemia); Jurkat (T cell leukemia); CCRF-CEM (lymphoblastic leukemia); CEM/C2 (camptothecan resistant derivative of CCRF-CEM). Cells were seeded in 96 wells plates at 3000 cells per well and incubated for 16 hours. […] Titrations were diluted 1:100 in media to achieve final compound concentrations. The 96 well plates were aspirated and compound dilutions in media were added ([…]). MTT analysis was carried out after 72 hours of incubation at 37° C. Briefly, […] of MTT solution was added to each well. Cells were incubated at 37° C. for 1-2 hours. […] Plates were read on a spectromax machine with an absorbance measurement at […]. IC50's were calculated (data provided in Table 13) using regression analysis within GraphPad Prism."}, "[5]": {"system": "CEM/C2 (camptothecan resistant derivative of CCRF-CEM)", "assay": "MTT cell viability assay, leukemia cells", "assay_type": "cell-based", "conditions": "Homo sapiens; CEM/C2, MTT after 72 hours", "method": "as §3"}, "[6]": {"system": "CCRF-CEM (lymphoblastic leukemia)", "assay": "MTT cell viability assay, leukemia cells", "assay_type": "cell-based", "conditions": "Homo sapiens, MTT after 72 hours", "method": "as §3"}, "[7]": {"system": "CCRF-CEM acute lymphoblastic leukemia tumor", "assay": "CCRF-CEM xenograft model", "assay_type": "in vivo, nude mice", "method": "CCRF-CEM acute lymphoblastic leukemia tumor lobes of 2-3 mm square were transplanted subcutaneously into nude mice. Tumors were allowed to grow to approximately 8-20 mm in diameter. […] Acceptable toxicity was defined as a mean group weight loss of 30% or less and not more than one toxic death among 6 treated animals. Anti-tumor activities of the drugs were assessed 20 or 21 days after the start of administration. Table 14 provides data for tumor inhibition (TI) and survival rate in the CCRF-CEM and LM3-Jck xenograft models."}, "[8]": {"system": "LM3-Jck human malignant lymphoma tumor", "assay": "LM3-Jck xenograft model", "assay_type": "in vivo, nude mice", "method": "LM3-Jck human malignant lymphoma tumor lobes (2-3 mm square) were transplanted subcutaneously into nude mice. Tumors were allowed to grow to approximately 7-14 mm in diameter. […] Acceptable toxicity was defined as a mean group weight loss of 30% or less and not more than one toxic death among 6 treated animals. Anti-tumor activities of the drugs were assessed 21 days after the start of administration."}},
  "note": "Marks after values point to notes of the source that are not given here.",
  "data": [
    {"smiles": "CC[C@@]1(O)C(=O)OCc2c1cc1n(c2=O)Cc2cc3ccccc3nc2-1", "note": "[Camptothecin, reference compound]", "values": [
      {"measurement": "Sensitization, fold decrease in the EC50 for cytotoxicity (MTT): Caffeine", "setting": "[1]", "result": 6, "unit": "fold"},
      {"measurement": "Sensitization, fold decrease in the EC50 for cytotoxicity (MTT): ATRFLOX", "setting": "[2]", "result": 5, "unit": "fold"},
      {"measurement": "Sensitization, fold decrease in the EC50 for cytotoxicity (MTT): DNAPKcs(−/−)", "setting": "[3]", "result": 0.7, "unit": "fold"}
    ]},
    {"smiles": "COc1cccc2c1C(=O)c1c(O)c3c(c(O)c1C2=O)C[C@@](O)(C(=O)CO)C[C@@H]3O[C@H]1C[C@H](N)[C@H](O)[C@H](C)O1", "note": "[Doxorubicin, doxorubicin, reference compound]", "values": [
      {"measurement": "IC50", "setting": "[4]", "result": 0.024, "unit": "µg/mL"},
      {"measurement": "IC50", "setting": "[5]", "result": 0.017, "unit": "µg/mL"},
      {"measurement": "IC50", "setting": "[6]", "result": 0.003, "unit": "µg/mL"},
      {"measurement": "IR (%) (tumor inhibition rate)", "setting": "[7]; q7d X3, IV, 12 mg/kg", "result": "50.3* %"},
      {"measurement": "IR (%) (tumor inhibition rate)", "setting": "[8]; LM3-JcK, q7d X3, IV, 12 mg/kg", "result": "57.2* %"},
      {"measurement": "Survival Ratio", "setting": "[8]; nude, mouse, in vivo, iv, 12 mg/kg, 21 days", "result": "6/6"}
    ]},
    {"smiles": "COc1cc([C@@H]2c3cc4c(cc3[C@@H](O[C@@H]3O[C@@H]5CO[C@@H](C)O[C@H]5[C@H](O)[C@H]3O)[C@H]3COC(=O)[C@H]23)OCO4)cc(OC)c1O", "note": "[Etoposide, etoposide, reference compound]", "values": [
      {"measurement": "IR (%) (tumor inhibition rate)", "setting": "[7]; qd X 5, IV, 12 mg/kg", "result": 28.3, "unit": "%"},
      {"measurement": "IR (%) (tumor inhibition rate)", "setting": "[8]; LM3-JcK, qd X 5, IV, 12 mg/kg", "result": 3.0, "unit": "%"}
    ]},
    {"smiles": "CCc1c2c(nc3ccc(OC(=O)N4CCC(N5CCCCC5)CC4)cc13)-c1cc3c(c(=O)n1C2)COC(=O)[C@]3(O)CC", "note": "[Irinotecan, irinotecan, reference compound]", "values": [
      {"measurement": "IR (%) (tumor inhibition rate)", "setting": "[7]; q4d x3, IV, 100 mg/kg", "result": "99.7* %"},
      {"measurement": "Survival Ratio", "setting": "[7]; q4d x3, IV, 100 mg/kg", "result": "5/6"},
      {"measurement": "IR (%) (tumor inhibition rate)", "setting": "[8]; LM3-JcK, q4d x3, IV, 100 mg/kg", "result": "97.7* %"},
      {"measurement": "Survival Ratio", "setting": "[8]; LM3-JcK, q4d x3, IV, 100 mg/kg", "result": "6/6"}
    ]}
  ]
}
